The values that follow are results of earlier work, collected in patent US6132766A, “Multivesicular liposomes with controlled release of encapsulated biologically active substances” (priority 1998, dated 2000).

Molecules are shown by their SMILES.

The conditions of series [1]: unencapsulated drug; about.
The test system of series [2] is strains of both gram negative and gram positive bacteria. The conditions noted are these: background statement.

As for `NCC[C@H](O)C(=O)N[C@@H]1C[C@H](N)[C@@H](O[C@H]2O[C@H](CN)[C@@H](O)[C@H](O)[C@H]2O)[C@H](O)[C@H]1O[C@H]1O[C@H](CO)[C@@H](O)[C@H](N)[C@H]1O` [amikacin], the serum half-life entry in series [1] is on record as “two to three”. In addition, in series [2], the “activity against strains of both gram negative and gram positive bacteria” value is reported as “clinically significant activity”.
